Laboratory results: paper PMC11406516, “The Tuberculosis Drug Candidate SQ109 and Its Analogs Have Multistage Activity against Plasmodium falciparum” (ACS Infectious Diseases, 2024)
≈ marks a conversion by molar mass, not a printed value. Marks after values point to notes of the source that are not given here.

test system: PfNF54 ABS; experiment: not given; set-up: method as in Stampolaki et al.[5]; details: drug-sensitive NF54; ref Stampolaki et al.[5]; read-out: Pf ABS IC50 NF54; cited from earlier work

For `CC(C)=CCC/C(C)=C/CNCC(=O)NC1C2CC3CC(C2)CC1C3` (stereo not shown) [Compound 17], the IC50 is given as 6490 ± 330 nM.

test system: PfNF54 LGc (stage IV/V gametocytes); experiment: PrestoBlue late-stage gametocyte viability assay; assay type: cell-based, Plasmodium falciparum; details: Plasmodium falciparum, 48 h, read-out: PfNF54 LGc IC50
Description: Gametocytogenesis was induced on highly synchronized (>95%) asexual ring-stage parasites from PfNF54 at 0.5% parasitemia and 6% hematocrit and thereafter maintained in glucose-deprived media as previously described.[29],[15] After 3 days, the hematocrit was decreased to 4%. Parasites were maintained in complete culture media supplemented with 50 mM N-acetyl-glucosamine 5–10 days post induction to inhibit proliferation of residual asexual blood stages. Gametocyte progression and morphology was also monitored microscopically using Giemsa-stained thin smears.
activity against the sexual stages of P. falciparum was evaluated using the PrestoBlue fluorescence assay as previously described.[4] Activity was measured on PfNF54 stage IV/V gametocytes (2% gametocytemia, 5% hematocrit) previously seeded with compounds (in non-lethal DMSO) for 48 h drug pressure, after which PrestoBlue reagent was added and incubated for 2 h. Fluorescence was detected in the supernatant at 612 nm. Dihydroartemisinin (DHA) was used as a positive drug control.

Compound `CC(C)=CCC/C(C)=C/CNC(=O)CNC1C2CC3CC(C2)CC1C3` (stereo not shown) [Compound 18] has an IC50 of over 10000 nM.

same assay, conditions: Plasmodium falciparum; stage IV/V gametocytes, 48 h drug pressure; read-out: PfNF54 LGc IC50

First: CC(C)=CCC/C(C)=C/CNCCNC1CC2CCC1C2 (stereo not shown) [Compound 10]
Second: CC(C)=CCC/C(C)=C/CNCCNC1CC2CCC1CC2 (stereo not shown) [Compound 11]
The IC50 of the first is 2.3-fold higher: 500 ± 70 nM for the first, 220 ± 40 nM for the second. The second is the more potent here.

Going from `CC(C)=CCC/C(C)=C/CNCCNCc1ccccc1` [Compound 12] to `CC(C)=CCC/C(C)=C/CNCCOC1C2CC3CC(C2)CC1C3` (stereo not shown) [Compound 16], the IC50 rises from 410 ± 200 nM to over 10000 nM.

`CC(C)=CCC/C(C)=C/CN(C)CCNC1C2CC3CC(C2)CC1C3` (stereo not shown) [Compound 14] and `CC(C)=CCC/C(C)=C/COCCNC1C2CC3CC(C2)CC1C3` (stereo not shown) [Compound 15] cannot be ordered by IC50: over 10000 nM for the first, over 10000 nM for the second.

Compared with `CC(C)=CCC/C(C)=C/CNCC(=O)NC1C2CC3CC(C2)CC1C3` (stereo not shown) [Compound 17], `CC(C)=CCNCCNC1C2CC3CC(C2)CC1C3` (stereo not shown) [Compound 26] is lower in IC50: over 10000 nM for the first, 370 ± 60 nM for the second. The second is the more potent here.

First: C1CCC(CCNCCNC2C3CC4CC(C3)CC2C4)CC1 (stereo not shown) [Compound 24]
Second: c1ccc(CNCCNC2C3CC4CC(C3)CC2C4)cc1 (stereo not shown) [Compound 25]
The IC50 of the first is higher: over 10000 nM for the first, 110 ± 60 nM for the second. The second is the more potent here.

test system: not listed separately; experiment: HepG2 cytotoxicity, LDH release assay; details: human, HepG2 cells
Description: Furthermore, compounds were evaluated against late (stage IV/V) gametocytes from PfNF54 (PfNF54 LGc), with viability detected with PrestoBlue,[15] and orthogonally evaluated for toxicity against a human hepatocellular carcinoma line, HepG2.[16]
Human hepatocellular liver carcinoma cells (HepG2) were cultivated in vitro in Dulbecco’s Modified Eagle’s Medium (DMEM) supplemented with 10% (v/v) heat inactivated fetal bovine serum and 1% (v/v) penicillin/streptomycin.[14] Cells were detached with trypsin treatment at 80% confluency and were seeded in 96-well plates to adhere for 24 h under 5% CO2, humid (95%) conditions. Cells were subsequently exposed to drug pressure for 24 h and cytotoxicity was then determined using the lactate dehydrogenase (LDH) release assay through the colorimetric detection at 450 nm, as previously outlined.[4],[16]

Compared with `CC(C)=CCC/C(C)=C/CNCCNC1CC2CCC1C2` (stereo not shown) [Compound 10], `CC(C)=CCC/C(C)=C/CNCCNC1CC2CCC1CC2` (stereo not shown) [Compound 11] is higher in viability at 24 h, 20 µM: 97% for the first, 100% for the second.

Going from `CC(C)=CCC/C(C)=C/CNCCNCc1ccccc1` [Compound 12] to `CC(C)=CCC/C(C)=C/CNCCOC1C2CC3CC(C2)CC1C3` (stereo not shown) [Compound 16], the viability at 24 h, 20 µM rises from 94% to 99%.

`CC(C)=CCC/C(C)=C/CN(C)CCNC1C2CC3CC(C2)CC1C3` (stereo not shown) [Compound 14] and `CC(C)=CCC/C(C)=C/COCCNC1C2CC3CC(C2)CC1C3` (stereo not shown) [Compound 15] are the same in viability at 24 h, 20 µM: 100% for the first, 100% for the second.

First: C1CCC(CCNCCNC2C3CC4CC(C3)CC2C4)CC1 (stereo not shown) [Compound 24]
Second: CC(C)=CCNCCNC1C2CC3CC(C2)CC1C3 (stereo not shown) [Compound 26]
The viability at 24 h, 20 µM of the first is lower: 27% for the first, 99% for the second.

With `c1ccc(CNCCNC2C3CC4CC(C3)CC2C4)cc1` (stereo not shown) [Compound 25] the viability at 24 h, 20 µM was 91%.

test system: HepG2 cells; experiment: not given; set-up: method as in Stampolaki et al.[5]; details: compound at 20 μM; ref Stampolaki et al.[5]; cited from earlier work

First: CC(C)=CCC/C(C)=C/CNCC(=O)NC1C2CC3CC(C2)CC1C3 (stereo not shown) [Compound 17]
Second: CC(C)=CCC/C(C)=C/CNC(=O)CNC1C2CC3CC(C2)CC1C3 (stereo not shown) [Compound 18]
The HepG2 % viability of the first is higher: 100%^b for the first, 99%^b for the second.

test system: not listed separately; experiment: physchem; assay type: physicochemical; details: 37 °C, pH 6.5, aqueous buffer, thermodynamic from solid
Description: The stock solutions (10^–2 M) of the assayed compounds were diluted to decreased molarity, from 300 to 0.1 μM, in 384 well transparent plate (Greiner 781801) with 1% DMSO:99% PBS buffer. Then, they were incubated at 37 °C and the light scattering was measured after 2 h in a NEPHELOstar Plus (BMG LABTECH). The results were adjusted to a segmented regression to obtain the maximum concentration in which compounds are soluble.
The solubility of each product was evaluated using an HPLC Agilent 1100 with a DAD detector. The samples were injected in an Agilent Poroshell 120 EC-C18, 2.7 μm, 50 mm × 4.6 mm column at 40 °C and 0.6 mL/min flow. The mobile phase was a mixture of A = water with 0.05% formic acid and B = acetonitrile with 0.05% formic acid. The procedure followed was from 95% A–5% B to 100% B in 3 min, 100% B in 3 min, from 100% B to 95% A–5% B in 1 min, 95% A–5% B in 3 min; the injection volume was set at 75 μL. […] The samples remained at these conditions between 12–24 h. Then, the samples were filtered through a 0.45 μm PVDF filter and either directly analyzed or diluted before analyzing. The obtained area under the curve was compared with the one from the standard solution.

`CC(C)=CCC/C(C)=C/CNCCNC1CC2CCC1C2` (stereo not shown) [Compound 10] and `CC(C)=CCC/C(C)=C/CNCCNCc1ccccc1` [Compound 12] are within 1.5-fold of each other in solubility: 155 µM (≈ 45 µg/mL) for the first, 160 µM (≈ 45.8 µg/mL) for the second.

test system: PfNF54 ABS; experiment: SYBR Green I proliferation assay, asexual blood stages, drug-sensitive NF54; details: Plasmodium falciparum, NF54, 96 h, read-out: Pf ABS IC50 NF54

`CC(C)=CCC/C(C)=C/CNCCNC1CC2CCC1C2` (stereo not shown) [Compound 10] and `CC(C)=CCC/C(C)=C/CNCCNC1CC2CCC1CC2` (stereo not shown) [Compound 11] are within error of each other in IC50: 1170 ± 200 nM for the first, 1660 ± 300 nM for the second.

`CC(C)=CCC/C(C)=C/CNCCNCc1ccccc1` [Compound 12] and `CC(C)=CCC/C(C)=C/CNCCOC1C2CC3CC(C2)CC1C3` (stereo not shown) [Compound 16] are within error of each other in IC50: 4320 ± 600 nM for the first, 3780 ± 750 nM for the second.

Compared with `CC(C)=CCC/C(C)=C/CN(C)CCNC1C2CC3CC(C2)CC1C3` (stereo not shown) [Compound 14], `CC(C)=CCC/C(C)=C/COCCNC1C2CC3CC(C2)CC1C3` (stereo not shown) [Compound 15] is 2.3-fold higher in IC50: 1090 ± 350 nM for the first, 2460 ± 140 nM for the second.

Going from `C1CCC(CCNCCNC2C3CC4CC(C3)CC2C4)CC1` (stereo not shown) [Compound 24] to `CC(C)=CCNCCNC1C2CC3CC(C2)CC1C3` (stereo not shown) [Compound 26], the IC50 rises from 1240 ± 80 nM to 4280 ± 360 nM (3.5-fold). The first is the more potent here.

For `c1ccc(CNCCNC2C3CC4CC(C3)CC2C4)cc1` (stereo not shown) [Compound 25], the IC50 was 3990 ± 280 nM.
